{"source": "paper PMC7156458", "about": "“Synthetic biology based construction of biological activity-related library of fungal decalin-containing diterpenoid pyrones” (Nature Communications, 2020)", "target": "Aβ42 (Homo sapiens, UniProt P05067)", "sequence (P05067 672-713)": "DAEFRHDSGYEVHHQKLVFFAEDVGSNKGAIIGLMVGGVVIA", "experiment": "Th-T (thioflavin-T) assay of Aβ42 aggregation", "type": "biochemical", "conditions": "for Th-T fluorescence, mean of three wells: compound at 50"}
{"compound": "C=C1CC[C@@H]2[C@](C)(CC[C@H]3O[C@H](C=C(C)C)C[C@@]23C)[C@@H]1Cc1c(OC)oc(CO)c(C)c1=O", "note": "[Compound 20]", "values": [{"measurement": "Th-T fluorescence, mean of three wells", "setting": "reading M54 of time course", "result": 2.134}, {"measurement": "Th-T fluorescence, mean of three wells", "setting": "reading M55 of time course", "result": 2.09}, {"measurement": "Th-T fluorescence, mean of three wells", "setting": "reading M56 of time course", "result": 2.129}, {"measurement": "Th-T fluorescence, mean of three wells", "setting": "reading M57 of time course", "result": 2.102}, {"measurement": "Th-T fluorescence, mean of three wells", "setting": "reading M58 of time course", "result": 2.115}, {"measurement": "Th-T fluorescence, mean of three wells", "setting": "reading M59 of time course", "result": 2.0923}, {"measurement": "Th-T fluorescence, mean of three wells", "setting": "reading M60 of time course", "result": 2.089}, {"measurement": "Th-T fluorescence, mean of three wells", "setting": "reading M61 of time course", "result": 2.104}, {"measurement": "Th-T fluorescence, mean of three wells", "setting": "reading M62 of time course", "result": 2.094}, {"measurement": "Th-T fluorescence of Aβ42 with compound, mean of three wells (Fig. 7a source data)", "setting": "concentration 10, unit not given, time-course reading M129", "result": 3.179}, {"measurement": "Th-T fluorescence of Aβ42 with compound, mean of three wells (Fig. 7a source data)", "setting": "concentration 10, unit not given, time-course reading M130", "result": 3.204}, {"measurement": "Th-T fluorescence of Aβ42 with compound, mean of three wells (Fig. 7a source data)", "setting": "concentration 10, unit not given, time-course reading M131", "result": 3.189}, {"measurement": "Th-T fluorescence of Aβ42 with compound, mean of three wells (Fig. 7a source data)", "setting": "concentration 10, unit not given, time-course reading M132", "result": 3.188}, {"measurement": "Th-T fluorescence of Aβ42 with compound, mean of three wells (Fig. 7a source data)", "setting": "concentration 10, unit not given, time-course reading M133", "result": 3.166}, {"measurement": "Th-T fluorescence of Aβ42 with compound, mean of three wells (Fig. 7a source data)", "setting": "concentration 10, unit not given, time-course reading M134", "result": 3.1894}, {"measurement": "Th-T fluorescence of Aβ42 with compound, mean of three wells (Fig. 7a source data)", "setting": "concentration 10, unit not given, time-course reading M135", "result": 3.162}, {"measurement": "Th-T fluorescence of Aβ42 with compound, mean of three wells (Fig. 7a source data)", "setting": "concentration 10, unit not given, time-course reading M136", "result": 3.159}, {"measurement": "Th-T fluorescence of Aβ42 with compound, mean of three wells (Fig. 7a source data)", "setting": "concentration 10, unit not given, time-course reading M137", "result": 3.15}, {"measurement": "Th-T fluorescence of Aβ42 with compound, mean of three wells (Fig. 7a source data)", "setting": "concentration 10, unit not given, time-course reading M138", "result": 3.16}, {"measurement": "Th-T fluorescence of Aβ42 with compound, mean of three wells (Fig. 7a source data)", "setting": "concentration 10, unit not given, time-course reading M139", "result": 3.169}, {"measurement": "Th-T fluorescence of Aβ42 with compound, mean of three wells (Fig. 7a source data)", "setting": "concentration 10, unit not given, time-course reading M140", "result": 3.158}, {"measurement": "Th-T fluorescence of Aβ42 with compound, mean of three wells (Fig. 7a source data)", "setting": "concentration 10, unit not given, time-course reading M141", "result": 3.147}, {"measurement": "Th-T fluorescence of Aβ42 with compound, mean of three wells (Fig. 7a source data)", "setting": "concentration 10, unit not given, time-course reading M142", "result": 3.131}, {"measurement": "Th-T fluorescence of Aβ42 with compound, mean of three wells (Fig. 7a source data)", "setting": "concentration 10, unit not given, time-course reading M143", "result": 3.135}, {"measurement": "Th-T fluorescence of Aβ42 with compound, mean of three wells (Fig. 7a source data)", "setting": "concentration 10, unit not given, time-course reading M144", "result": 3.139}, {"measurement": "Th-T fluorescence of Aβ42 with compound, mean of three wells (Fig. 7a source data)", "setting": "concentration 10, unit not given, time-course reading M145", "result": 3.1201}, {"measurement": "Th-T fluorescence of Aβ42 with compound, mean of three wells (Fig. 7a source data)", "setting": "concentration 20, unit not given, time-course reading M129", "result": 3.1}, {"measurement": "Th-T fluorescence of Aβ42 with compound, mean of three wells (Fig. 7a source data)", "setting": "concentration 20, unit not given, time-course reading M130", "result": 3.095}, {"measurement": "Th-T fluorescence of Aβ42 with compound, mean of three wells (Fig. 7a source data)", "setting": "concentration 20, unit not given, time-course reading M131", "result": 3.098}, {"measurement": "Th-T fluorescence of Aβ42 with compound, mean of three wells (Fig. 7a source data)", "setting": "concentration 20, unit not given, time-course reading M132", "result": 3.079}, {"measurement": "Th-T fluorescence of Aβ42 with compound, mean of three wells (Fig. 7a source data)", "setting": "concentration 20, unit not given, time-course reading M133", "result": 3.072}, {"measurement": "Th-T fluorescence of Aβ42 with compound, mean of three wells (Fig. 7a source data)", "setting": "concentration 20, unit not given, time-course reading M134", "result": 3.073}, {"measurement": "Th-T fluorescence of Aβ42 with compound, mean of three wells (Fig. 7a source data)", "setting": "concentration 20, unit not given, time-course reading M135", "result": 3.076}, {"measurement": "Th-T fluorescence of Aβ42 with compound, mean of three wells (Fig. 7a source data)", "setting": "concentration 20, unit not given, time-course reading M136", "result": 3.0605}, {"measurement": "Th-T fluorescence of Aβ42 with compound, mean of three wells (Fig. 7a source data)", "setting": "concentration 20, unit not given, time-course reading M137", "result": 3.049}, {"measurement": "Th-T fluorescence of Aβ42 with compound, mean of three wells (Fig. 7a source data)", "setting": "concentration 20, unit not given, time-course reading M138", "result": 3.042}, {"measurement": "Th-T fluorescence of Aβ42 with compound, mean of three wells (Fig. 7a source data)", "setting": "concentration 20, unit not given, time-course reading M139", "result": 3.041}, {"measurement": "Th-T fluorescence of Aβ42 with compound, mean of three wells (Fig. 7a source data)", "setting": "concentration 20, unit not given, time-course reading M140", "result": 3.025}, {"measurement": "Th-T fluorescence of Aβ42 with compound, mean of three wells (Fig. 7a source data)", "setting": "concentration 20, unit not given, time-course reading M141", "result": 3.02}, {"measurement": "Th-T fluorescence of Aβ42 with compound, mean of three wells (Fig. 7a source data)", "setting": "concentration 20, unit not given, time-course reading M142", "result": 3.019}, {"measurement": "Th-T fluorescence of Aβ42 with compound, mean of three wells (Fig. 7a source data)", "setting": "concentration 20, unit not given, time-course reading M143", "result": 3.013}, {"measurement": "Th-T fluorescence of Aβ42 with compound, mean of three wells (Fig. 7a source data)", "setting": "concentration 20, unit not given, time-course reading M144", "result": 3.009}, {"measurement": "Th-T fluorescence of Aβ42 with compound, mean of three wells (Fig. 7a source data)", "setting": "concentration 20, unit not given, time-course reading M145", "result": 2.993}, {"measurement": "Th-T fluorescence of Aβ42 with compound, mean of three wells (Fig. 7a source data)", "setting": "concentration 50, unit not given, time-course reading M129", "result": 2.106}, {"measurement": "Th-T fluorescence of Aβ42 with compound, mean of three wells (Fig. 7a source data)", "setting": "concentration 50, unit not given, time-course reading M130", "result": 2.116}, {"measurement": "Th-T fluorescence of Aβ42 with compound, mean of three wells (Fig. 7a source data)", "setting": "concentration 50, unit not given, time-course reading M131", "result": 2.114}, {"measurement": "Th-T fluorescence of Aβ42 with compound, mean of three wells (Fig. 7a source data)", "setting": "concentration 50, unit not given, time-course reading M132", "result": 2.119}, {"measurement": "Th-T fluorescence of Aβ42 with compound, mean of three wells (Fig. 7a source data)", "setting": "concentration 50, unit not given, time-course reading M133", "result": 2.114}, {"measurement": "Th-T fluorescence of Aβ42 with compound, mean of three wells (Fig. 7a source data)", "setting": "concentration 50, unit not given, time-course reading M134", "result": 2.123}, {"measurement": "Th-T fluorescence of Aβ42 with compound, mean of three wells (Fig. 7a source data)", "setting": "concentration 50, unit not given, time-course reading M135", "result": 2.118}, {"measurement": "Th-T fluorescence of Aβ42 with compound, mean of three wells (Fig. 7a source data)", "setting": "concentration 50, unit not given, time-course reading M136", "result": 2.117}, {"measurement": "Th-T fluorescence of Aβ42 with compound, mean of three wells (Fig. 7a source data)", "setting": "concentration 50, unit not given, time-course reading M137", "result": 2.122}, {"measurement": "Th-T fluorescence of Aβ42 with compound, mean of three wells (Fig. 7a source data)", "setting": "concentration 50, unit not given, time-course reading M138", "result": 2.119}, {"measurement": "Th-T fluorescence of Aβ42 with compound, mean of three wells (Fig. 7a source data)", "setting": "concentration 50, unit not given, time-course reading M139", "result": 2.116}, {"measurement": "Th-T fluorescence of Aβ42 with compound, mean of three wells (Fig. 7a source data)", "setting": "concentration 50, unit not given, time-course reading M140", "result": 2.117}, {"measurement": "Th-T fluorescence of Aβ42 with compound, mean of three wells (Fig. 7a source data)", "setting": "concentration 50, unit not given, time-course reading M141", "result": 2.123}, {"measurement": "Th-T fluorescence of Aβ42 with compound, mean of three wells (Fig. 7a source data)", "setting": "concentration 50, unit not given, time-course reading M142", "result": 2.118}]}
